Experimental findings from US5677459A, “Methods for the preparation of modulators of acetylcholine receptors” (Sibia Neurosciences, Inc., priority 1995, dated 1997) are described below.

Test [1] has as its target T1, nicotinic acetylcholine receptor (Rattus norvegicus, UniProt P09483+P12390).
T1 construct: the brains removed and the cerebral cortex dissected on ice; from tissue; host or cells: cerebral cortex synaptic membranes of male Sprague-Dawley rats
Kind of test: ^3 H-Nicotine binding/displacement, rat cerebral membranes. As to the method: ^3 H-Nicotine binding to rat cerebral membranes was performed according to modifications of the method of Flyn and Mash (J. Neurochem. 47:1948 (1986)). ^3 H-Nicotine (80 ci/mmol; New England Nuclear Corporation, Boston, Mass.) was used as the ligand for nicotinic acetylcholine receptor binding assays. All other reagents were purchased from the Sigma Chemical Co. (St. Louis, Mo.).
Male Sprague-Dawley rats (250-400 gm) were sacrificed by decapitation, the brains removed and the cerebral cortex dissected on ice. Synaptic membranes were prepared by homogenizing the cortical tissue in 20 volumes of ice-cold modified Tris buffer (50 mM Tris pH 7.4, 120 mM NaCl, 5 mM KCl, 2 mM EDTA, 1 mM PMSF) with a polytron (20 sec at setting 5-6) followed by centrifugation (15 min at 5,000×g) at 4° C. The resultant pellet was rehomogenized and centrifuged twice. The final pellet was resuspended in ice-cold assay buffer (50 mM Tris pH 7.4, 120 mM NaCl, 5 mM KCl, 2 mM CaCl2, 1 mM MgCl2) at a concentration of membrane equivalent to 1 gm wet weight cortex per 10 ml buffer. After protein determination the final membrane preparation was diluted with buffer to 3 mg protein/mi. This membrane preparation was used in either the fresh state or frozen (-70° C.) then thawed.
The binding assay is performed manually using 96-well plates, or using a Biomek automated work station (Beckman Instrument Co.). ^3 H-Nicotine was diluted in assay buffer to give a final concentration of 1.9 nM. The Biomek automated work station was programmed to automatically transfer 750 μl of assay buffer with ^3 H-nicotine, 230 μl of membrane preparation and 20 μl of solution containing the compound of interest in assay buffer, DMSO, ethanol:DMSO (1:1) or appropriate vehicle to the 96-well plate. Atropine was added to the incubation buffer at a final concentration of 3 μM to block binding to muscarinic acetylcholine receptor sites. The plates were maintained on ice for 60 min and the tissue-bound radioactivity was separated from the free by rapid filtration in a Brandel Harvester onto GF/C filters presoaked in 0.5% polyethyleneimine for at least 2 hr. The filters were washed with 4×2 ml of ice-cold assay buffer and filters were transferred to vials to which 4 ml of scintillation cocktail was added. The radioactivity was measured in a LS-6500 Beckman Liquid Scintillation Counter in an autodpm mode. Data were analyzed bylog-logit transformation or non-linear regression analysis (e.g., employing GraphPad Prism, available from GraphPad Software, San Diego, Calif.) to give IC50 values. Non-specific binding was defined by 10 μM cytisine.

In test [2] the target is muscarinic acetylcholine receptors. As to the kind of experiment: ^3 H-QNB (quinuclidinyl benzilate) binding/displacement, rat cerebral membranes.
In test [3] the test system is ^3 H-Dopamine release, rat striatal slices. As to the kind of experiment: Ligand-stimulated ^3 H-dopamine release from rat striatal slices. In kind it is cell-based. Conditions: Rattus norvegicus, read-out: % of Nicotine Response, ^3 H-Dopamine, Striatum. As to the method:
(§1) Measurement of ^3 H-dopamine release from rat striatal slices was performed according to the method of Sacaan et al. (J. Neurochem. 59:245 (1992)). Male Sprague-Dawley rats (250-300 g) were decapitated and the striata or olfactory tubercles dissected quickly on a cold glass surface. The tissue was chopped to a thickness of 300 μm with a McIlwain tissue chopper. After chopping again at right angles the tissue was dispersed and incubated for 10 min. at 37° C. in oxygenated Kreb's buffer. ^3 H-Dopamine (40 Ci/mmol, NEN- Dupont, Boston, Mass.) was added (50 nM) and the tissue was incubated for 30 min. in Kreb's buffer containing 10 μM pargyline and 0.5 mM ascorbic acid. Aliquots of the minced tissue were then transferred to chambers of a Brandel Superfusion system in which the tissue was supported on Whatman GF/B filter discs. The tissue was then superfused with buffer at a constant flow rate of 0.3 ml/min by means of a Brandel peristaltic pump. The perfusate was collected in plastic scintillation vials in 3-min fractions, and the radioactivity was estimated by scintillation spectrophotometry. The superfusate for the first 120 min was discarded. After two baseline fractions had been collected, the superfusion buffer was switched to fresh buffer with or without compound of interest. At the end of the experiment the filter and the tissue were removed, and the radiolabeled neurotransmitter content was estimated after extraction into scintillation fluid. The fractional efflux of radiolabeled neurotransmitter was estimated as the amount of radioactivity in the perfusate fraction relative to the total amount in the tissue.
(§2) Results of studies of the effects of an invention compound (as compared to the effect of nicotine) on the release of neurotransmitters from rat brain slices are presented in Table II. Results presented in Part A of the Table are expressed as the percent fractional release and results presented in Part B of the Table are expressed as a percentage, relative to nicotine response.

The test system of test [4] is ^3 H-Norepinephrine release, rat hippocampus slices. As to the kind of experiment: Ligand-stimulated ^3 H-norepinephrine release from rat hippocampus slices. Conditions: for Emax at 300 µM: Rattus norvegicus, nicotine 300 μM = 100, read-out: % of Nicotine Response, ^3 H-Norepinephrine, Hippocampus; for % of Nicotine Response, ^3 H-Norepinephrine, Hippocampus: 300 μM, nicotine 300 μM = 100. In kind it is cell-based. As to the method: as §1
Following essentially the same procedure as set forth above, the amount of ^3 H-norepinephrine released from rat hippocampus, thalamus and prefrontal cortex slices superfused with buffer containing (or lacking) compounds of interest was also measured.
as §2

The next test relates to rats. As to the kind of experiment: Locomotor activity assay. In kind it is in vivo, rat (male Sprague-Dawley). The conditions noted are these: Rattus norvegicus, sc, 20 mg/kg, s.c. As to the method: This assay can be used to assess the primary effect of a compound on general motor activity. A decrease in locomotor activity is indicative of a possible sedative effect on the animal, whereas an increase in locomotor activity is indicative of a stimulant effect on the animal.
Locomotor activity of rats (male Sprague-Dawley (Harlan) weighing 200-250 gm) was measured for 2 hrs in photocell cages immediately after administration of the invention compound. Prior to the test day, the animals were placed in the activity cages for 3 hrs to familiarize them with the experimental environment. On the test day, the animals were placed in the photocell cages and then injected with compound 1.5 hrs later.
The photocell cages were standard rodent cages (30 cm×20 cm×40 cm) with four infrared beams crossing the long axis. The animals were under no motivational constraints and were free to move around. Movements from one infrared beam to another (ambulation) were called "crossover"; successive interruptions of the same beam (vertical and other movements such as grooming) were called "general activity."

Where [5] appears, read: ^3 H-nicotine 1.9 nM, rat cerebral membranes, read-out: IC50, Nicotine.
The mark [6] stands for this setting: ^3 H-QNB 60 pM, rat cerebral membranes.
The mark [7] stands for this setting: compounds at 300 μM, nicotine 10 μM = 100.

Counter-ions that a name gives are not always drawn. Like-named read-outs stand apart in the source and are kept apart here. A value given as a limit tells only on which side of the number the result lay.

T1 sequence (P09483 31-630): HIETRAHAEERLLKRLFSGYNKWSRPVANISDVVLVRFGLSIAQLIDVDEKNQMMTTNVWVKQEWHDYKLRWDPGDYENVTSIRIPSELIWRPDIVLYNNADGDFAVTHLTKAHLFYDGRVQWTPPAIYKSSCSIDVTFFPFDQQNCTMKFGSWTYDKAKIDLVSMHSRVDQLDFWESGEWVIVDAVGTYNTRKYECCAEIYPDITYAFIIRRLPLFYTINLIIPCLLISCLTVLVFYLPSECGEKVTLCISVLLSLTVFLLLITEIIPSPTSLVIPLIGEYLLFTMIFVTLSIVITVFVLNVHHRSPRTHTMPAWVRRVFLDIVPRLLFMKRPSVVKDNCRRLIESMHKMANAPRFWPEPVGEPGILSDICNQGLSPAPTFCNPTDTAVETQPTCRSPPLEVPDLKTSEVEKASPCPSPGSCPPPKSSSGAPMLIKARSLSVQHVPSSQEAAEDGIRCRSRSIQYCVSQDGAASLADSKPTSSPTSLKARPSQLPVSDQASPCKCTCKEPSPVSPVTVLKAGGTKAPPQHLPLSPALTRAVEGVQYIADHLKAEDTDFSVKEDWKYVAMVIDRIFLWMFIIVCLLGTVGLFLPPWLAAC
T1 sequence (P12390 25-500): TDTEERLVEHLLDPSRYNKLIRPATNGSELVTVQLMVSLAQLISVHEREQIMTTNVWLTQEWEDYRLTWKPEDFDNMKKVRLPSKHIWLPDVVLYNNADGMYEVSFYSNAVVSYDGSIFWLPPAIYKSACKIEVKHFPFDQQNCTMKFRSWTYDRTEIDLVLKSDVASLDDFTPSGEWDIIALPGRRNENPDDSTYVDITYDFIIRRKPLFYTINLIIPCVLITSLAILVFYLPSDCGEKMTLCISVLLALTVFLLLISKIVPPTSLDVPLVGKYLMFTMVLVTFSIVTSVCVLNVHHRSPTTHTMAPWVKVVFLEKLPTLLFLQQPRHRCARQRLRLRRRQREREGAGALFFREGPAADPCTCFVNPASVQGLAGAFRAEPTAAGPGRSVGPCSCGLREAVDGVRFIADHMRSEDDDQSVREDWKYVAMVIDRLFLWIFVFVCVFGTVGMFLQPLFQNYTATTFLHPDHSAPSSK

As a reminder, the IC50 is the concentration that gives 50% inhibition. As to `CN1CCCC1c1cncc(C#CC(C)(C)O)c1` (stereo not shown), the IC50 in test [1] (setting [5]) is 38 nM; in test [2] (setting [6]) it was > 100000 nM. The Emax at 300 µM in test [3] (setting [7]) was found to be 118%; in test [4], 18.3%.
Turning to `C#Cc1cncc(C2CCCN2C)c1` (single isomer, unassigned) [5-Ethynyl-3-(1-methyl-2-pyrrolidinyl)pyridine di-p-toluoyl-L-tartrate], the IC50 in test [1] (IC50, Nicotine) was 2.6 nM. In addition, the Emax at 300 µM in test [3] (compound at 300 μM, Nicotine concentration was 300 μM) was found to be 155%.
On to `C#Cc1cncc(C2CCCN2C)c1` (single isomer, unassigned) [5-ethynyl-3-(1-methyl-2-pyrrolidinyl)pyridine di-p-toluoyl-D-tartrate], for which the IC50 in test [1] (IC50, Nicotine) amounted to 78 nM. For the same molecule, the Emax at 300 µM in test [3] (setting [7]) worked out at 33%.
In test [2] (setting [6]), `C#Cc1cncc(C2CCCN2C)c1` (single isomer, unassigned) [R^5 = 5-(1-ethynyl) Di-p-toluoyl-D-tartrate] [5-ethynyl-3-(1-methyl-2-pyrrolidinyl)pyridine di-p-toluoyl-D-tartrate] had an IC50 of 4700 nM. The “% of Nicotine Response, ^3 H-Norepinephrine, Hippocampus” value in test [4] is 3.7%.
Consider `C#Cc1cncc(C2CCCN2C)c1` (single isomer, unassigned) [R^5 = 5-(1-ethynyl) Di-p-toluoyl-L-tartrate] [5-Ethynyl-3-(1-methyl-2-pyrrolidinyl)pyridine di-p-toluoyl-L-tartrate], for which, in test [4], the “% of Nicotine Response, ^3 H-Norepinephrine, Hippocampus” value was 17.4%.
Turning to `Fc1ccc(-c2cncc(C3CCCCN3)c2)cc1` (stereo not shown) [5-(4-Fluorophenyl)-3-(2-piperidinyl)pyridine fumarate], the IC50 in test [1] (setting [5]) amounted to 490 nM; in test [2] (setting [6]), 24900 nM.
Turning to `C#Cc1cncc(C2CCC(=O)N2C)c1` (stereo not shown) [A = C(O); R^7 = CH3; R^5 = 5-(1-ethynyl), 5-Ethynyl-3-(1-methyl-5-pyrrolidin-2-onyl)pyridine], the IC50 in test [1] (setting [5]) and in test [2] (setting [6]) was > 100000 nM throughout.
`CN(C)CC#Cc1cncc(C2CCCN2C)c1` (stereo not shown) [R^5 = 5-(1-dimethylamino-2-propynyl), 5-[3-(1-Dimethylamino-2-propynyl)]-3-(1-methyl-2-pyrrolidinyl)pyridine fumarate]: the half-inhibitory concentration (IC50) was found to be 25 nM in test [1] (setting [5]) and 100000 nM in test [2] (setting [6]). The Emax at 300 µM in test [3] (setting [7]) came to 235%.
In the case of `CN1CCCC1c1cncc(C#CCO)c1` (stereo not shown) [R^5 = 5-(1-hydroxy-2-propynyl)], the results for the IC50 in test [1] (setting [5]) and in test [2] (setting [6]) were 3.6 nM and > 100000 nM, respectively. The Emax at 300 µM in test [3] (setting [7]) amounted to 157%; in test [4], 39%.
On to `CN1CCCC1c1cncc(C#CCCO)c1` (stereo not shown) [R^5 = 5-(1-hydroxy-3-butynyl)], for which the IC50 is 6 nM in test [1] (setting [5]) and > 100000 nM in test [2] (setting [6]). The figures for the Emax at 300 µM in test [3] (setting [7]) and in test [4] were 100% and 36.3%, respectively.
For the molecule `COCC#Cc1cncc(C2CCCN2C)c1` (stereo not shown) [R^5 = 5-(1-methoxy-2-propynyl), 5-[3-(1-Methoxy-2-propynyl)]-3-(1-methyl-2-pyrrolidinyl)pyridine fumarate], the values for the 50% inhibitory concentration (IC50) in test [1] (setting [5]) and in test [2] (setting [6]) were 2.6 nM and > 100000 nM, respectively. The Emax at 300 µM in test [3] (setting [7]) came out at 61.7%; in test [4], 7.4%.
For the molecule `CCCC#Cc1cncc(C2CCCN2C)c1` (stereo not shown) [R^5 = 5-(1-pentynyl), 5-[1-(1-Pentynyl)]-3-(1-methyl-2-pyrrolidinyl)pyridine fumarate], the concentration for half-maximal inhibition (IC50) in test [1] (setting [5]) amounted to 4.2 nM; in test [2] (setting [6]), 39000 nM. In addition, the Emax at 300 µM in test [3] (setting [7]) turned out to be 27.7%.
With `CC#Cc1cncc(C2CCCN2C)c1` (stereo not shown) [R^5 = 5-(1-propynyl), 5-[1-(1-Propynyl)]-3-(1-methyl-2-pyrrolidinyl)pyridine fumarate], the IC50 in test [1] (setting [5]) was 29 nM; in test [2] (setting [6]), > 100000 nM.
As for `CC(O)C#Cc1cncc(C2CCCN2C)c1` (stereo not shown) [R^5 = 5-(2-hydroxy-3-butynyl), 5-[4-(2-Hydroxy-3-butynyl)]-3-(1-methyl-2-pyrrolidinyl)pyridine fumarate], the IC50 is 11 nM in test [1] (setting [5]) and > 100000 nM in test [2] (setting [6]). The Emax at 300 µM worked out at 98% in test [3] (setting [7]) and 30.5% in test [4].
`CN1CCCC1c1cncc(C#CCCCCCCC#Cc2cncc(C3CCCN3C)c2)c1` (stereo not shown) [R^5 = See below*, 1,10-Bis-5-[3-(1-methyl-2-pyrrolidinyl)pyridine]-deca-1,9-diyne fumarate]: the IC50 is 5.2 nM in test [1] (IC50, Nicotine, ^3 H-nicotine 1.9 nM, rat cerebral membranes) and 7500 nM in test [2].
Take `CN1CCCC1c1cncc(C#Cc2ccccc2)c1` (stereo not shown) [R^5 = phenylethynyl, 5-Phenylethynyl-3-(1-methyl-2-pyrrolidinyl)pyridine fumarate]: the change in vivo at 20 mg/kg is 7% in the test on rats (1 h, 0-60 min, read-out: Ambulation (cross overs), percent of change from control); 3% with rats (1 h, 0-60 min, read-out: General Activity (beam breaks), percent of change from control); -16% in the test on rats (2 h, 60-120 min, read-out: Ambulation (cross overs), percent of change from control); -11% in the test on rats (2 h, 60-120 min, read-out: General Activity (beam breaks), percent of change from control).
Regarding `C#Cc1cncc(C2CCCN2)c1` (stereo not shown) [R^7 = H; R^5 = 5-(1-ethynyl), 5-Ethynyl-3-(1-H-2-pyrrolidinyl)pyridine fumarate], the figures for the IC50 in test [1] (setting [5]) and in test [2] (setting [6]) were 58 nM and 8900 nM, respectively. The Emax at 300 µM is 61.7% in test [3] (setting [7]) and 13.4% in test [4].
